Experimental findings from patent US10016383B2, “Inhibitors of metallo-β-lactamase-enzymes” (McMaster University, priority 2013, dated 2018) are described below.

For one test, the system named is Pseudomonas spp. The test can be described thus: Clinical isolate screening with meropenem. The class given is cell-based, Pseudomonas aeruginosa. As to the method: Various concentrations of AM-A were chosen in combination with 2 mg/L of meropenem which is the EUCAST breakpoint for resistance^28. Synergistic properties of the two compounds were examined in a micro-titre tray using BHI as the growth medium (Oxford Science Park, England) and an inoculum of 0.5 MacFarland. All plates contained the control strains Escherichia coli ATCC 25922 and Pseudomonas aeruginosa ATCC 27853. Overall, 226 non-clonal clinical isolates (Enterobacteriaceae, P. aeruginosa and Acinetobacter spp.) were challenged containing one of the following MBLs: SPM-1 (n=17), AIM-1 (n=8), NDM-1 (n=67), VIM-type (n=114) or IMP-type (n=20). […] Plates were incubated at 37° C. and read after 18 hrs.

The subject of a further test is K. pneumoniae N11-2218. Nature of the test: Mouse systemic infection, organ bacterial load. The class given is in vivo, CD1 mice. The text has this:
All animals were housed in specific pathogen-free units in the Central Animal Facility at McMaster University. All experimental protocols were approved by, and performed in accordance with the McMaster Animal Research Ethics Board. Female CD1 mice were purchased from Charles River.
Mice were infected intraperitoneally (ip) with a dose of 2×10^6 colony forming units (cfu) of Klebsiella pneumoniae N11-2218 for all organ bacterial load experiments, or with a dose of 5×10^7cfu for all survival experiments. For all organ bacterial load experiments, mice were euthanized 48 hours post infection, and spleen and liver were harvested. Organs were placed into 1 mL sterile PBS on ice, and then homogenized (Mixer Mill 400; Retsch). Organ homogenates were then serially diluted in PBS, and plated on Brilliant Green agar (Oxoid) for cfu enumeration. For survival curves, mice were monitored for endpoint. For all experiments, mice were treated 30 minutes post infection with a specified subcutaneous dose of either PBS, meropenem, AM-A inhibitor, or a combination of both antibiotic and inhibitor.

Test [1] concerns the target T1, NDM-1 (Klebsiella pneumoniae, UniProt C7C422). Nature of the test: Incubation of AM-A with metalloenzymes in Zn2+-depleted buffer. The class given is biochemical. Also on record: All β-lactamase overexpression constructs were generated without the leader peptide in a pET-28b plasmid containing a N-terminal His Tag; His tag (N, cleaved yes); SUMO (implied by the use of SUMO protease) (N, cleaved yes); made in house; host or cells: E. coli BL21(DE3). Particulars: extended incubation, AM-A 0.5 mM. As to the method:
Enzyme (500 nM) was incubated with AM-A (500 μM) for 10 minutes. 20 μL of the above was diluted with 180 μL nitrocefin or FAPGG substrate for the following final concentrations: Enzyme (50 nM), FAPGG (50 μM)/nitrocefin (20 μM), AM-A (50 μM). Buffer (50 mM HEPES pH 7.5, 300 mM NaCl) was stirred overnight with 2 g/100 mL Chelex-100 (Biorad; Richmond, Calif.). Assays were read in 96-well microplate format at 490 nm using a Spectramax reader (Molecular Devices) at 37° C.

Test [2] concerns the target T1, NDM-1. The test can be described thus: Reversibility assay (PD-10 column removal of AM-A). Particulars: after removal of AM-A by gel filtration (PD10 column). The format is biochemical. Also on record: All β-lactamase overexpression constructs were generated without the leader peptide in a pET-28b plasmid containing a N-terminal His Tag; His tag (N, cleaved yes); SUMO (implied by the use of SUMO protease) (N, cleaved yes); made in house; host or cells: E. coli BL21(DE3). As to the method:
5 mL NDM-1 (500 nM) was incubated either with AM-A (100 μM), or without, on ice for 1 hour. The no enzyme control was buffer alone (Chelex-treated 50 mM HEPES pH 7.5). 2.5 mL was passed through a PD-10 spin column (GE healthcare) following column equilibration with buffer and centrifuged at 2,000×g for 2 minutes. Pre-PD-10 (+AM-A, −AM-A, −NDM-1), Post-PD-10 ((+AM-A, −AM-A, −NDM-1), and nitrocefin were equilibrated to 30° C. 20 μL of the enzyme solution was added to 180 μL nitrocefin for final enzyme concentration of 50 nM, and nitrocefin of 100 μM and AM-A of 10 μM. Assays were read in 96-well microplate format at 490 nm using a Spectramax reader (Molecular Devices) for 1 hr at 30° C.

The target in test [3] is T1, NDM-1. Nature of the test: Zn2+ restoration assay. The conditions noted are these: post-inactivation by AM-A. The class given is biochemical. Also on record: All β-lactamase overexpression constructs were generated without the leader peptide in a pET-28b plasmid containing a N-terminal His Tag; His tag (N, cleaved yes); SUMO (implied by the use of SUMO protease) (N, cleaved yes); made in house; host or cells: E. coli BL21(DE3). As to the method:
NDM-1 (5 nM) supplemented with […] ZnSO4 was incubated with 20 μM AM-A for 15 minutes at 30° C. Nitrocefin (30 μM) and ZnSO4 from 500 nM-40 μM were added to a final volume of 100 μL and absorbance at 490 nm was monitored using a Spectramax reader (Molecular Devices) for 30 minutes at 30° C. Percent residual activity was calculated from no AM-A control. Slightly negative percent residual activity was reported as 0.

Entries after “also recorded” stand apart in the source; their conditions may differ.

T1 sequence (C7C422 29-270 limits assumed): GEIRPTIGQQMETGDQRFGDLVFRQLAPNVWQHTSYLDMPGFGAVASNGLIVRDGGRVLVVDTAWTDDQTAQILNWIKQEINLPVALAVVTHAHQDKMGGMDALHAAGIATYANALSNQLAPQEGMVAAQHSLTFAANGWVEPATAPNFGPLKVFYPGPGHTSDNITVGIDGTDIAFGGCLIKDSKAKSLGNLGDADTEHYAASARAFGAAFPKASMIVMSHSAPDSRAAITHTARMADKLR

Consider `N[C@H](CN[C@H](CN[C@@H](CC(=O)O)C(=O)O)C(=O)O)C(=O)O` [AM-A, aspergillomarasmine A], for which, in the test with Pseudomonas spp., the “activity in Pseudomonas spp. (potentiation of meropenem)” value is recorded as “active”. Also, the “bacterial load in tissues” value with K. pneumoniae N11-2218 (AM-A alone) is “unaffected”. Further, the “bacterial load in the spleen” value in the test on K. pneumoniae N11-2218 (combination meropenem 10 mg/kg + AM-A 10 mg/kg, single dose, 48 hours post infection) was “significantly reduced”. For the same molecule, the “inactivation of NDM-1” value at NDM-1 [1] was “complete inactivation”. For the same molecule, at NDM-1 [2], the “reversibility of NDM-1 inhibition” value was “irreversible inactivation”. Moreover, at NDM-1 [3], the “NDM-1 activity after addition of excess ZnSO4” value is “enzymatic activity could be restored; also recorded: restores activity”.
